Literature values, collected in patent EP0611304B1, “USE OF […] (ACEMANNAN) FOR THE REGULATION OF BLOOD C[…] AND FOR REMOVING PLAQUES IN BLOOD VESSELS” (CARRINGTON LABORATORIES, INC., priority 1991, dated 1993).

System: CEM cells infected with HTLV-IIIRFII virus
Details: 0.001 µg/ml AZT alone

For `Cc1cn([C@H]2C[C@H](N=[N+]=[N-])[C@@H](CO)O2)c(=O)[nH]c1=O` [AZT, Zidovudine], which “increase in viability of infected CEM cells” value is on record?
Its value is “no more than 10%”.
